{"source": "patent US20090285862A1", "about": "“METHODS AND COMPOSITION FOR TREATMENT OF INFLAMMATORY PAIN” (priority 2006, published 2009)", "key": {"male Wistar rats": {"test_system": "male Wistar rats", "test": "open field activity monitor, testing for sedation", "type": "in vivo, rat", "settings": "for open field activity monitor, mean: male, Wistar, rat, in vivo, ip, 20 min", "protocol": "(§1) Experiments were performed on male Wistar rats (wt 150-220 g). Three series of experiments were performed in an observer blinded fashion with saline (negative) controls and GABAPentin (positive) controls. The investigations were in three stages: • 1. a range of doses of aprepitant (an example of a NK antagonist) given alone and in combination with flupiritine (an example of an inhibitor of neuronal excitation) were tested for sedating effects using the open field activity monitor. In this way it was determined which doses of drug and drug combinations could be used to test for analgesic effects without causing sedation; • 2. a range of doses of aprepitant given alone and in combination with flupirtine were tested for the ability to reverse the allodynia effect causes by intraplantar injection of carrageenan; • 3. a range of doses of aprepitant given alone and in combination with flupirtine were tested for the ability to reverse the allodynia and hyperalgesia caused by streptozotocin-induced diabetic neuropathy.\nIndividual rats (several rats per treatment group) were placed in an open field activity monitor in which the movement of the rat could be monitored remotely by the frequency and number of interruption of infrared beams directed across the box in a grid. The activity in the monitor was measured for periods of 20 minutes in each rat. This was performed in groups of rats that received (1) control injection of saline, (2) GABAPentin 50 mg/kg as the maximum dose of the drug found previously not to be sedating (drug positive control) administered intraperitoneally, or (3) after pharmacological interventions that involve the administration of aprepitant and flupiritine given at a range of doses alone and in combination. If a rat was sedated by a drug or drug combination, the movements recorded were less. Since rates became habituated to the open field monitor, only one experiment was performed on each rat with this test.\nRats are observed in a commercially available open-field arena in which locomotor and exploratory activity can be monitored in darkness by the breaking of infrared beams arranged in a grid pattern over the entire area (MedAssociates Inc. St. Albans, Vt., USA 05478). The observations are started 5 minutes after the intraperitoneal administration of drugs. The total time of observations in all cases is 20 minutes. In order to avoid habituation to the activity monitor, animals are used once in this test for sedation. Rest time is defined as the time spent with no new infrared beam interruptions."}, "[1]": {"test_system": "carrageenan-induced allodynia", "test": "carrageenan paw inflammation, reversal of allodynia assessed with Von Frey hairs", "type": "in vivo, rat", "settings": "rats, IP, non-sedating doses, drug administered alone", "protocol": "as §1\nInflammation involves the release of a number of substances into the tissues following injury. These substances including prostaglandins, bradykinin, inflammatory peptides such as substance P and calcitonin gene related peptide and also a number of cytokines. […] Nociceptive thresholds were measured in groups of rats prior to the intraplantar injection. […]"}}, "note": "Marks after values point to notes of the source that are not given here.", "data": [{"compound": "NCC1(CC(=O)O)CCCCC1", "note": "[GABAPentin]", "values": [{"measurement": "maximum dose found previously not to be sedating", "setting": "male Wistar rats; rats, intraperitoneally, found previously", "result": 50, "unit": "mg/kg"}]}, {"compound": "C[C@@H](O[C@H]1OCCN(Cc2n[nH]c(=O)[nH]2)[C@H]1c1ccc(F)cc1)c1cc(C(F)(F)F)cc(C(F)(F)F)c1", "note": "[aprepitant]", "values": [{"measurement": "open field activity monitor, mean", "setting": "male Wistar rats; 6.25 mg/kg", "result": 869.0}, {"measurement": "open field activity monitor, mean", "setting": "male Wistar rats; 12.5 mg/kg", "result": "915.0*"}, {"measurement": "open field activity monitor, mean", "setting": "male Wistar rats; 25 mg/kg", "result": "964.6*"}, {"measurement": "open field activity monitor, mean", "setting": "male Wistar rats; 50 mg/kg", "result": "976.6*"}, {"measurement": "open field activity monitor, mean", "setting": "male Wistar rats; 100 mg/kg", "result": "1058.2*"}, {"measurement": "dose causing no sedating effects (upper limit)", "setting": "male Wistar rats; rats, drug given alone", "result": "≤ 6.25", "unit": "mg/kg"}, {"measurement": "antinociception, reversal of carrageenan-induced allodynia (Von Frey)", "setting": "[1]", "result": "neither flupirtine or aprepitant given at non-sedating doses caused any antinociception"}]}]}
